Patent publication US20180338918A1, “TEMSIROLIMUS LIPOSOME AND PREPARATION METHOD THEREOF” (JIANGSU TASLY DIYI PHARMACEUTICAL CO., LTD., priority 2017, published 2018)

What was measured:
[1] = Sulfobutyl ether-β-cyclodextrin inclusion of temsirolimus, appearance of the solution; format: physicochemical; conditions: 1 mg/mL temsirolimus; application amount of sulfobutyl ether-β-cyclodextrin 50%
Experimental: The druggabilities of sulfobutyl ether-β-cyclodextrin inclusion complex, liposome, and fat emulsion were investigated. The drug loading was fixed at 1 mg/ml for parallel comparisons. The main study protocol and results were summarized as follows:
Formula amount of sulfobutyl ether-β-cyclodextrin was weighed, and dissolved by adding quantum satis water for injection, and setting the volume thereof to 100 mL; formula amount of temsirolimus was weighed, added into the aqueous solution of sulfobutyl ether-β-cyclodextrin, and stirred them at room temperature for 2 h.
Formula amount of sulfobutyl ether-β-cyclodextrin was weighed, dissolved by adding quantum satis water for injection to give an aqueous phase; formula amounts of temsirolimus and organic vehicle (anhydrous ethanol, or propanediol, or PEG4000) were weighed, dissolved by water-bath ultrasound to give an organic phase; the organic phase was poured into the aqueous phase with stirring, and mixed uniformly, and setting the volume thereof to full volume with water for injection, and thus the formulations were obtained.

[2] = Solubility of temsirolimus in common oils for injection (medium chain oil, soybean oil); format: physicochemical; conditions: for Dissolution state: 30 min
From the text: Investigation of the solubility of temsirolimus in common oils for injection (medium chain oil, soybean oil)

[3] = background statement; cited from earlier work
mice = conditions: injected via tail vein of mice, compared with Tween 80; cited from earlier work

Compound	Inclusion of temsirolimus by sulfobutyl ether-β-cyclodextrin [1]	Dissolution state ([2]; Medium chain oil, 10 mg/g, 60° C.)	Dissolution state ([2]; Medium chain oil, 10 mg/g, 70° C.)	Dissolution state ([2]; Medium chain oil, 10 mg/g, 80° C.)	Dissolution state ([2]; Medium chain oil, 20 mg/g, 60° C.)	Dissolution state ([2]; Medium chain oil, 20 mg/g, 70° C.)	Dissolution state ([2]; Medium chain oil, 20 mg/g, 80° C.)	Dissolution state ([2]; Medium chain oil, 30 mg/g, 60° C.)	Dissolution state ([2]; Medium chain oil, 30 mg/g, 70° C.)	Dissolution state ([2]; Medium chain oil, 30 mg/g, 80° C.)	Dissolution state ([2]; Medium chain oil, 40 mg/g, 60° C.)	Dissolution state ([2]; Medium chain oil, 40 mg/g, 70° C.)	Dissolution state ([2]; Medium chain oil, 40 mg/g, 80° C.)	Dissolution state ([2]; Soybean oil, 10 mg/g, 60° C.)	Dissolution state ([2]; Soybean oil, 10 mg/g, 70° C.)	Dissolution state ([2]; Soybean oil, 10 mg/g, 80° C.)	Solubilities in the medium chain oil and soybean oil ([2]; summary in words)	Solubility in water [3]	Acute toxicity (mice)
CO[C@H]1C[C@@H]2CC[C@@H](C)[C@@](O)(O2)C(=O)C(=O)N2CCCC[C@H]2C(=O)O[C@H]([C@H](C)C[C@@H]2CC[C@@H](OC(=O)C(C)(CO)CO)[C@H](OC)C2)CC(=O)[C@H](C)/C=C(\C)[C@@H](O)[C@@H](OC)C(=O)[C@H](C)C[C@H](C)/C=C/C=C/C=C/1C [temsirolimus, 42-bis(hydroxymethyl) propionate of sirolimus]	cannot be included	Severe	Severe	Severe	Severe	Severe	Severe	Severe	Severe	Severe	Severe	Severe	Severe	Severe	Severe	Severe	poor	almost insoluble in water	
polyethylene glycol stearate 15																			great, even greater than that of Tween 80
